We go through 20 compounds from patent US20150133426A1, “SUBSTITUTED PYRROLOPYRIMIDINES” (BAYER PHARMA AKTIENGESELLSCHAFT, priority 2012, published 2015).

Structures are written as SMILES.

T1 sequence (Q9BUB5 1-424 isoform Q9BUB5-2 T344D): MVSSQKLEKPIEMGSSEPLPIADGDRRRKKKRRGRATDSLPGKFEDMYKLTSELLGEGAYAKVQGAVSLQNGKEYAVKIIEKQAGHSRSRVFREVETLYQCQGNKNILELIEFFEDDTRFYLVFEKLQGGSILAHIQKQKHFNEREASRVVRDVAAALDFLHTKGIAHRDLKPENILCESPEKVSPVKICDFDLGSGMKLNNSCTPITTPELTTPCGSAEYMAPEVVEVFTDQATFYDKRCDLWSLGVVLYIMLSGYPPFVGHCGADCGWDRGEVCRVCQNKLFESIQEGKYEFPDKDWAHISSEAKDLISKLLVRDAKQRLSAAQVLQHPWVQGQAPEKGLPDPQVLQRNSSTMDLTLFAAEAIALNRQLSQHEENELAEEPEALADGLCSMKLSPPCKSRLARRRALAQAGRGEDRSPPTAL

The assay addresses T1, human full-length MKNK1 (Homo sapiens, UniProt Q9BUB5, T385D).
T1 construct: purchased Carna Biosciences 02-145; host or cells: insect cells, baculovirus expression system
Kind of assay: MKNK1 kinase high ATP assay (TR-FRET). It counts as biochemical. As to conditions: high ATP (2 mM), 15 min preincubation with enzyme, GST-MKNK1 (T344D). As to the method: MKNK1-inhibitory activity at high ATP of compounds of the present invention after their preincubation with MKNK1 was quantified employing the TR-FRET-based MKNK1 high ATP assay as described in the following paragraphs.
A recombinant fusion protein of Glutathione-S-Transferase (GST, N-terminally) and human full-length MKNK1 (amino acids 1-424 and T344D of accession number BAA 19885.1), expressed in insect cells using baculovirus expression system and purified via glutathione sepharose affinity chromatography, was purchased from Carna Biosciences (product no 02-145) and used as enzyme. As substrate for the kinase reaction the biotinylated peptide biotin-Ahx-IKKRKLTRRKSLKG (C-terminus in amide form) was used, which can be purchased e.g. from the company Biosyntan (Berlin-Buch, Germany).
For the assay 50 nL of a 100fold concentrated solution of the test compound in DMSO was pipetted into a black low volume 384well microtiter plate (Greiner Bio-One, Frickenhausen, Germany), 2 μL of a solution of MKNK1 in aqueous assay buffer [50 mM HEPES pH 7.5, 5 mM MgCl2, 1.0 mM dithiothreitol, 0.005% (v/v) Nonidet-P40 (Sigma)] was added and the mixture was incubated for 15 min at 22° C. to allow pre-binding of the test compounds to the enzyme before the start of the kinase reaction. Then the kinase reaction was started by the addition of 3 μL of a solution of adenosine-tri-phosphate (ATP, 3.3 mM=>final conc. in the 5 μL assay volume is 2 mM) and substrate (0.1 μM=>final conc. in the 5 μL assay volume is 0.06 μM) in assay buffer and the resulting mixture was incubated for a reaction time of 30 min at 22° C. The concentration of MKNK1 was adjusted depending of the activity of the enzyme lot and was chosen appropriate to have the assay in the linear range, typical concentrations were in the range of 0.003 μg/mL. The reaction was stopped by the addition of 5 μL of a solution of TR-FRET detection reagents (5 nM streptavidine-XL665 [Cisbio Bioassays, Codolet, France] and 1 nM anti-ribosomal protein […] (pSer236)-antibody from Invitrogen [#44921G] and 1 nM LANCE EU-W1024 labeled ProteinG [Perkin-Elmer, product no. AD0071]) in an aqueous EDTA-solution (100 mM EDTA, 0.1% (w/v) bovine serum albumin in 50 mM HEPES pH 7.5).
The resulting mixture was incubated for 1 h at 22° C. to allow the formation of complex between the phosphorylated biotinylated peptide and the detection reagents. Subsequently the amount of phosphorylated substrate was evaluated by measurement of the resonance energy transfer from the Eu-chelate to the streptavidine-XL. Therefore, the fluorescence emissions at 620 nm and 665 nm after excitation at 350 nm were measured in a TR-FRET reader, e.g. a Rubystar (BMG Labtechnologies, Offenburg, Germany) or a Viewlux (Perkin-Elmer). The ratio of the emissions at 665 nm and at […] was taken as the measure for the amount of phosphorylated substrate. The data were normalised (enzyme reaction without inhibitor=0% inhibition, all other assay components but no enzyme=100% inhibition).
In general terms: TR-FRET usually uses a lanthanide donor and a delayed reading to cut background.
One may read the IC50 as the point on the concentration scale where inhibition reaches its midpoint. A low value points to greater potency in that assay. In the case of `CS(=O)(=O)CCCNC(=O)C1CCc2[nH]c3ncnc(Nc4ccc5c(c4)OC(F)(F)O5)c3c2C1` (racemic) [Example 36, (RS)-4-[(2,2-Difluoro-1,3-benzodioxol-5-yl)amino]-N-[3-(methylsulfonyl)propyl]-6,7,8,9-tetrahydro-5H-pyrimido[4,5-b]indole-6-carboxamide], it took 3170 nM to reach half-maximal inhibition (IC50).

On to `COc1cc(F)ccc1Nc1ncnc2[nH]c3c(c12)CC(C(=O)NCCCS(C)(=O)=O)CC3` (racemic) [Example 37, (RS)-4-[(4-Fluoro-2-methoxyphenyl)amino]-N-[3-(methylsulfonyl)propyl]-6,7,8,9-tetrahydro-5H-pyrimido[4,5-b]indole-6-carboxamide], for which the IC50 was 145 nM.

`CS(=O)(=O)CCCNC(=O)C1CCc2[nH]c3ncnc(Nc4ccc(C(=O)N5CCCC5)cc4)c3c2C1` (racemic) [Example 38, (RS)—N-[3-(Methylsulfonyl)propyl]-4-{[4-(pyrrolidin-1-ylcarbonyl)phenyl]amino}-6,7,8,9-tetrahydro-5H-pyrimido[4,5-b]indole-6-carboxamide] showed an IC50 of 10600 nM.

As to `COc1ccc(F)cc1Nc1ncnc2[nH]c3c(c12)CC(C(=O)NCCCS(C)(=O)=O)CC3` (racemic) [Example 39, (RS)-4-[(5-Fluoro-2-methoxyphenyl)amino]-N-[3-(methylsulfonyl)propyl]-6,7,8,9-tetrahydro-5H-pyrimido[4,5-b]indole-6-carboxamide], the IC50 worked out at 59 nM.

With `CS(=O)(=O)CCCNC(=O)C1CCc2[nH]c3ncnc(Nc4ccc5c(c4)CS(=O)(=O)C5)c3c2C1` (racemic) [Example 40, (RS)-4-[(2,2-Dioxido-1,3-dihydro-2-benzothiophen-5-yl)amino]-N-[3-(methylsulfonyl)propyl]-6,7,8,9-tetrahydro-5H-pyrimido[4,5-b]indole-6-carboxamide], the IC50 was determined as 1160 nM.

Regarding `CNS(=O)(=O)c1ccc(Nc2ncnc3[nH]c4c(c23)CC(C(=O)NCCCS(C)(=O)=O)CC4)cc1` (racemic) [Example 41, (RS)-4-{[4-(Methylsulfamoyl)phenyl]amino}-N-[3-(methylsulfonyl)propyl]-6,7,8,9-tetrahydro-5H-pyrimido[4,5-b]indole-6-carboxamide], the half-maximal inhibitory concentration (IC50) turned out to be 9330 nM.

Consider `COc1ccc(OC)c(Nc2ncnc3[nH]c4c(c23)CC(C(=O)NCCCS(C)(=O)=O)CC4)c1` (racemic) [Example 42, (RS)-4-[(2,5-Dimethoxyphenyl)amino]-N-[3-(methylsulfonyl)propyl]-6,7,8,9-tetrahydro-5H-pyrimido[4,5-b]indole-6-carboxamide], for which it took 615 nM to reach half-maximal inhibition (IC50).

The compound `CS(=O)(=O)CCCNC(=O)C1CCc2[nH]c3ncnc(Nc4ccc(F)c(OC(F)(F)F)c4)c3c2C1` (racemic) [Example 43, (RS)-4-{[4-Fluoro-3-(trifluoromethoxy)phenyl]amino}-N-[3-(methylsulfonyl)propyl]-6,7,8,9-tetrahydro-5H-pyrimido[4,5-b]indole-6-carboxamide] came in with an IC50 of 782 nM.

`COc1cc(Cl)c(Cl)cc1Nc1ncnc2[nH]c3c(c12)CC(C(=O)NCCCS(C)(=O)=O)CC3` (racemic) [Example 44, (RS)-4-[(4,5-Dichloro-2-methoxyphenyl)amino]-N-[3-(methylsulfonyl)propyl]-6,7,8,9-tetrahydro-5H-pyrimido[4,5-b]indole-6-carboxamide]: the 50% inhibitory concentration (IC50) is 6 nM.

The compound `CS(=O)(=O)CCCNC(=O)C1CCc2[nH]c3ncnc(Nc4ccc5c(c4)COC5=O)c3c2C1` (racemic) [Example 45, (RS)—N-[3-(Methylsulfonyl)propyl]-4-[(1-oxo-1,3-dihydro-2-benzofuran-5-yl)amino]-6,7,8,9-tetrahydro-5H-pyrimido[4,5-b]indole-6-carboxamide] gave a half-maximal inhibitory concentration (IC50) of 82 nM.

Regarding `CS(=O)(=O)CCCNC(=O)C1CCc2[nH]c3ncnc(Nc4ccc5c(c4)C(=O)OC5)c3c2C1` (racemic) [Example 46, (RS)—N-[3-(Methylsulfonyl)propyl]-4-[(3-oxo-1,3-dihydro-2-benzofuran-5-yl)amino]-6,7,8,9-tetrahydro-5H-pyrimido[4,5-b]indole-6-carboxamide], the midpoint of inhibition, the IC50, lay at 2240 nM.

`CS(=O)(=O)CCCNC(=O)C1CCc2[nH]c3ncnc(Nc4cccc(-n5cnnn5)c4)c3c2C1` (racemic) [Example 47, (RS)—N-[3-(Methylsulfonyl)propyl]-4-{[3-(1H-tetrazol-1-yl)phenyl]amino}-6,7,8,9-tetrahydro-5H-pyrimido[4,5-b]indole-6-carboxamide]: inhibition was half-maximal at 1310 nM (IC50).

The compound `CS(=O)(=O)CCCNC(=O)C1CCc2[nH]c3ncnc(Nc4ccc(S(N)(=O)=O)cc4)c3c2C1` (racemic) [Example 48, (RS)—N-[3-(Methylsulfonyl)propyl]-4-[(4-sulfamoylphenyl)amino]-6,7,8,9-tetrahydro-5H-pyrimido[4,5-b]indole-6-carboxamide] returned an IC50 of 2840 nM.

In turn, `CS(=O)(=O)CCCNC(=O)C1CCc2[nH]c3ncnc(Nc4ccc5ncsc5c4)c3c2C1` (racemic) [Example 49, (RS)-4-(1,3-Benzothiazol-6-ylamino)-N-[3-(methylsulfonyl)propyl]-6,7,8,9-tetrahydro-5H-pyrimido[4,5-b]indole-6-carboxamide] returned an IC50 of 231 nM.

`Cc1nc2cc(Nc3ncnc4[nH]c5c(c34)CC(C(=O)NCCCS(C)(=O)=O)CC5)ccc2s1` (racemic) [Example 50, (RS)-4-[(2-Methyl-1,3-benzothiazol-5-yl)amino]-N-[3-(methylsulfonyl)propyl]-6,7,8,9-tetrahydro-5H-pyrimido[4,5-b]indole-6-carboxamide] returned an IC50 of 6410 nM.

For `CS(=O)(=O)CCCNC(=O)C1CCc2[nH]c3ncnc(Nc4ccc5c(c4)OCC(=O)N5)c3c2C1` (racemic) [Example 51, (RS)—N-[3-(Methylsulfonyl)propyl]-4-[(3-oxo-3,4-dihydro-2H-1,4-benzoxazin-7-yl)amino]-6,7,8,9-tetrahydro-5H-pyrimido[4,5-b]indole-6-carboxamide], the IC50 amounted to 370 nM.

`CS(=O)(=O)CCCNC(=O)C1CCc2[nH]c3ncnc(Nc4ccc5c(c4)CCS5(=O)=O)c3c2C1` (racemic) [Example 52, (RS)-4-[(1,1-Dioxido-2,3-dihydro-1-benzothiophen-5-yl)amino]-N-[3-(methylsulfonyl)propyl]-6,7,8,9-tetrahydro-5H-pyrimido[4,5-b]indole-6-carboxamide]: the IC50 came to 904 nM.

Consider `CC(=O)c1ccc(Nc2ncnc3[nH]c4c(c23)CC(C(=O)NCCCS(C)(=O)=O)CC4)cc1` (racemic) [Example 53, (RS)-4-[(4-Acetylphenyl)amino]-N-[3-(methylsulfonyl)propyl]-6,7,8,9-tetrahydro-5H-pyrimido[4,5-b]indole-6-carboxamide], for which inhibition was half-maximal at 335 nM (IC50).

`Cc1ccc(Nc2ncnc3[nH]c4c(c23)CC(C(=O)NCCCS(C)(=O)=O)CC4)c(O)c1` (racemic) [Example 54, (RS)-4-[(2-Hydroxy-4-methylphenyl)amino]-N-[3-(methylsulfonyl)propyl]-6,7,8,9-tetrahydro-5H-pyrimido[4,5-b]indole-6-carboxamide] showed an IC50 of 3080 nM.

Consider `CS(=O)(=O)CCCNC(=O)C1CCc2[nH]c3ncnc(Nc4cccc(-c5cnco5)c4)c3c2C1` (racemic) [Example 55, (RS)—N-[3-(Methylsulfonyl)propyl]-4-{[3-(1,3-oxazol-5-yl)phenyl]amino}-6,7,8,9-tetrahydro-5H-pyrimido[4,5-b]indole-6-carboxamide], for which 511 nM corresponded to half-maximal inhibition (IC50).
